Measurements as given in patent US9023789B2, “Amylin analogs and pharmaceutical compositions thereof” (Novo Nordisk A/S, priority 2012, dated 2015).
In brackets after ≈: the same amount, converted by molar mass. Like-named read-outs stand apart in the source and are kept apart here. Numbered stars: 1 amine (or outer) side, 2 acyl side, 3 side chain; on linkers, the order of the positions; unused ones are H or OH. Bridge positions count the residues as written; N and C are the ends. Side chains are listed from the residue outwards. Peptide text beside a SMILES is read from it. * marks the point of attachment. C20 diacid = O=C(O)CCCCCCCCCCCCCCCCCCC(=O)*; γGlu = O=C(O)[C@H](CCC(=O)[*:2])N[*:1]; AEEA = NCCOCCOCC(=O)O

Key:
[1] = molecular target: T1, human amylin 3(a) receptor (human calcitonin receptor + RAMP-3) in BHK570 cells (Homo sapiens, UniProt O60896+P30988); assay: ASSAY (II)a functional assay, human amylin receptor (CRE luciferase); type: cell-based
T1 construct: expressed in transfected cells
Procedure, shortened: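 Functional agonism was measured by CRE-luciferase reporter luminescence in BHK cells bearing calcitonin receptor, or calcitonin receptor plus RAMP-3 as the amylin 3(a) receptor. Stimulation lasted 3 hours at 37° C.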

[2] = ASSAY (IV) determination of solubility; type: physicochemical
Procedure, shortened: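 Solubility measured by UPLC of supernatant after centrifugation, following 18 h at room temperature. Peptide ([…] in water) was diluted 1:1 into 100 mM glycylglycine (pH 3.0, 4.0, 5.0) or bistrispropane (pH 6.0-8.0).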

[3] = molecular target: T2, human amylin receptor (membranes from Amylin 3(a)/CRE-luc cells) (Homo sapiens, UniProt O60896+P30988); assay: ASSAY (V) binding to the human amylin receptor (SPA, 125I-rat amylin);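 also: competition binding of cell membranes (35 ng/µL) mixed with SPA beads in 384-well plates at 40 µL total volume, read by scintillation counting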
T2 construct: expressed in transfected cells
T2 sequence (P30988 25-474): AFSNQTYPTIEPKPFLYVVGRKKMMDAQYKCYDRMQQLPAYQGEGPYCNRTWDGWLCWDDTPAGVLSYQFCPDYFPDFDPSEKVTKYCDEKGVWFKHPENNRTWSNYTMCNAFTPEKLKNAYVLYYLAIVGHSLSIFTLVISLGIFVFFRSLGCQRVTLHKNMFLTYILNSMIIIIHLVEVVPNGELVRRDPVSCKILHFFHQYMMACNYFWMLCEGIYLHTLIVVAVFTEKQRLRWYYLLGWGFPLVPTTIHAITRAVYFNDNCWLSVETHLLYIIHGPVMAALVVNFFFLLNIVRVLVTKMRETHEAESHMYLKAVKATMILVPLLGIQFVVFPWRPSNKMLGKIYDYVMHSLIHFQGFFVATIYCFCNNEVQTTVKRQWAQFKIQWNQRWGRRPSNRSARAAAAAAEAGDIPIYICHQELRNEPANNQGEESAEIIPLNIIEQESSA
T2 sequence (O60896 24-148 partner): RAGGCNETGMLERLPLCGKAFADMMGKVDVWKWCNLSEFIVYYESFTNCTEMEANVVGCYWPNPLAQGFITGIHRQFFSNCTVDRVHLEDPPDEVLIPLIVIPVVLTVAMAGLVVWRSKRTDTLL

rat calcitonin receptor = molecular target: T3, rat calcitonin receptor (Rattus norvegicus, UniProt P32214); assay: ASSAY (VIII) binding to the rat calcitonin receptor; settings: Table 7, read-out: rCTR bind IC50
T3 construct: expressed in transfected cells; host or cells: BHK tk'ts 13 (transient, FuGENE 6), membranes
T3 sequence (P32214 25-479 isoform P32214-2 limits assumed): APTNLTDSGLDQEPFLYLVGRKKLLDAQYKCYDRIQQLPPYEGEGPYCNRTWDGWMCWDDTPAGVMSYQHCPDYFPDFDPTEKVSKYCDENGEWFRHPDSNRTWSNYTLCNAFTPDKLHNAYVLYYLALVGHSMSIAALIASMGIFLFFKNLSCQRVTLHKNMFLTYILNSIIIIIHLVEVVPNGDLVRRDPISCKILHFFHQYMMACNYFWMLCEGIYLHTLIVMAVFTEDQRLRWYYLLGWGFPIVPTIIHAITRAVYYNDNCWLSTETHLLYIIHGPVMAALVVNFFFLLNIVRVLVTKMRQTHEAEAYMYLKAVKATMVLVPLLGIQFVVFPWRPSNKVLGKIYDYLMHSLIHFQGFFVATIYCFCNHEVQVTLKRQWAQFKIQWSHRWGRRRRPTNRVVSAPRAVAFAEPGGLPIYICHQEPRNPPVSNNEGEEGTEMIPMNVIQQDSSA
Procedure, shortened: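 BHK tk′ts 13 cells, transient rat calcitonin receptor transfection; DMEM + 10% FBS; harvest ~48 h post-transfection; membrane prep.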

[4] = hCTR funct. EC50 divided by hAmylin-R funct. EC50
[5] = hCTR funct. EC50 over hAmylin-R funct. EC50
[6] = human functional selectivity: hCTR funct. EC50 / hAmylin-R funct. EC50
[7] = bistrispropane buffer, pH 6.5, read-out: Solubility pH 6.5 Concentration
[8] = bistrispropane buffer, pH 7.5, read-out: Solubility pH 7.5 Concentration
[9] = bistrispropane buffer, pH 6.0, read-out: Solubility pH 6.0 Concentration
[10] = bistrispropane buffer, pH 7.0, read-out: Solubility pH 7.0 Concentration
[11] = bistrispropane buffer, pH 8.0, read-out: Solubility pH 8.0 Concentration
[12] = glycylglycine buffer, pH 3.0, read-out: Solubility pH 3.0 Concentration
[13] = glycylglycine buffer, pH 4.0, read-out: Solubility pH 4.0 Concentration
[14] = glycylglycine buffer, pH 5.0, read-out: Solubility pH 5.0 Concentration
[15] = Table 5, selectivity, hCTR bind IC50 / hAmylin-R bind IC50
[16] = Table 5a, selectivity, hCTR bind IC50 / hAmylin-R bind IC50
[17] = Table 5b, selectivity, hCTR bind IC50 / hAmylin-R bind IC50
[18] = Table 5c, selectivity, hCTR bind IC50 / hAmylin-R bind IC50
[19] = Table 7, human binding selectivity, included for comparison
[20] = Table 7a (preferred compounds), human binding selectivity, included for comparison
[21] = ratio of human calcitonin receptor binding IC50 to human amylin receptor binding IC50

| Ratio hCT/hAmylin funct. [1, 4] | Ratio hCT/hAmylin funct. [1, 5] | Ratio hCT/hAmylin funct. [1, 6] | solubility at 18 h [2, 7] | solubility at 18 h [2, 8] | solubility at 18 h [2, 9] | solubility at 18 h [2, 10] | solubility at 18 h [2, 11] | solubility at 18 h [2, 12] | solubility at 18 h [2, 13] | solubility at 18 h [2, 14] | Ratio hCT/hAmylin binding [3, 15] | Ratio hCT/hAmylin binding [3, 16] | Ratio hCT/hAmylin binding [3, 17] | Ratio hCT/hAmylin binding [3, 18] | Ratio hCT/hAmylin binding [3, 19] | Ratio hCT/hAmylin binding [3, 20] | Ratio hCT/hAmylin binding [3, 21] | IC50 (rat calcitonin receptor) | further results | Compound |
| --- | --- | --- | --- | --- | --- | --- | --- | --- | --- | --- | --- | --- | --- | --- | --- | --- | --- | --- | --- | --- |
| 21.9 | 21.9 | 21.9 | ≥ 200 µM | 96 µM (≈ 438 µg/mL) | ≥ 200 µM | ≥ 200 µM | 48 µM (≈ 219 µg/mL) | ≥ 200 µM | ≥ 200 µM | ≥ 200 µM | 109.4 | 109.4 | 109.4 | 109.4 | 109.4 | 109.4 | 109.4 | 10.3 nM | Solubility pH 6.5 Concentration ([2]; pH 6.5 (Table 9a)): ≧200 μM; Solubility pH 7.0 Concentration ([2]; pH 7.0 (Table 9a)): ≧200 μM | CC[C@H](C)[C@H](NC(=O)[C@H](C)NC(=O)CNC(=O)[C@H](Cc1ccccc1)NC(=O)[C@H](CC(N)=O)NC(=O)[C@@H]1CCCN1C(=O)[C@H](CO)NC(=O)[C@H](CO)NC(=O)[C@H](Cc1c[nH]cn1)NC(=O)[C@H](CCCNC(=N)N)NC(=O)[C@H](CC(C)C)NC(=O)[C@H](Cc1ccccc1)NC(=O)[C@H](CC(N)=O)NC(=O)[C@H](C)NC(=O)[C@H](CC(C)C)NC(=O)[C@H](CCCNC(=N)N)NC(=O)[C@H](CCC(N)=O)NC(=O)[C@@H](NC(=O)[C@H](C)NC(=O)[C@@H]1CSSC[C@H](NC(=O)[C@@H](N)CCCCNC(=O)COCCOCCNC(=O)CC[C@H](NC(=O)CCCCCCCCCCCCCCCCCCC(=O)O)C(=O)O)C(=O)N[C@@H](CC(N)=O)C(=O)N[C@@H]([C@@H](C)O)C(=O)N[C@@H](C)C(=O)N[C@@H]([C@@H](C)O)C(=O)N1)[C@@H](C)O)C(=O)N1CCC[C@H]1C(=O)N[C@@H](CO)C(=O)N[C@@H](CO)C(=O)N[C@H](C(=O)N[C@@H](CC(N)=O)C(=O)N[C@H](C(=O)NCC(=O)N1CCC[C@H]1C(=O)N[C@@H](Cc1c[nH]cn1)C(=O)N[C@H](C(=O)N[C@@H](Cc1ccc(O)cc1)C(N)=O)[C@@H](C)O)C(C)C)[C@@H](C)O [Example 58] (H-K([AEEA-γGlu-C20 diacid])CNTATCATQRLANFLRHSSPNFGAIPSSTNVGPHTY-NH2; disulfide 2-7) |
| 9.8 |  | 9.8 | ≥ 200 µM | ≥ 200 µM | ≥ 200 µM | ≥ 200 µM | ≥ 200 µM | ≥ 200 µM | ≥ 200 µM | ≥ 200 µM | 103.5 | 103.5 | 103.5 | 103.5 | 103.5 | 103.5 | 103.5 | 10.9 nM |  | CC[C@H](C)[C@H](NC(=O)[C@H](C)NC(=O)CNC(=O)[C@H](Cc1ccccc1)NC(=O)[C@H](CC(N)=O)NC(=O)[C@@H]1CCCN1C(=O)[C@H](CO)NC(=O)[C@H](CO)NC(=O)[C@H](Cc1c[nH]cn1)NC(=O)[C@H](CCCNC(=N)N)NC(=O)[C@H](CC(C)C)NC(=O)[C@H](Cc1ccccc1)NC(=O)[C@H](CC(N)=O)NC(=O)[C@H](C)NC(=O)[C@H](CC(C)C)NC(=O)[C@H](CCCNC(=N)N)NC(=O)[C@H](CCC(N)=O)NC(=O)[C@@H](NC(=O)[C@H](C)NC(=O)[C@@H]1CSSC[C@H](NC(=O)[C@@H](N)CCCCNC(=O)COCCOCCNC(=O)CC[C@H](NC(=O)CCCCCCCCCCCCCCCCCCC(=O)O)C(=O)O)C(=O)N[C@@H](CC(N)=O)C(=O)N[C@@H]([C@@H](C)O)C(=O)N[C@@H](C)C(=O)N[C@@H]([C@@H](C)O)C(=O)N1)[C@@H](C)O)C(=O)N1CCC[C@H]1C(=O)N1CCC[C@H]1C(=O)N[C@@H](CO)C(=O)N[C@H](C(=O)N1CCC[C@H]1C(=O)N[C@H](C(=O)NCC(=O)N[C@@H](CO)C(=O)N[C@@H](CC(N)=O)C(=O)N[C@H](C(=O)N[C@@H](Cc1ccc(O)cc1)C(N)=O)[C@@H](C)O)C(C)C)[C@@H](C)O [Example 53] (H-K([AEEA-γGlu-C20 diacid])CNTATCATQRLANFLRHSSPNFGAIPPSTPVGSNTY-NH2; disulfide 2-7; N-terminus assumed) |
|  | 17.3 | 17.3 | 131 µM (≈ 594 µg/mL) | ≥ 200 µM | 64 µM (≈ 290 µg/mL) | 198 µM (≈ 898 µg/mL) |  |  | 7 µM (≈ 31.7 µg/mL) |  | 7.8 |  |  |  | 7.8 | 7.8 |  | 86.8 nM |  | CC[C@H](C)[C@H](NC(=O)[C@H](C)NC(=O)CNC(=O)[C@@H]1CCCN1C(=O)[C@H](CC(N)=O)NC(=O)[C@H](CC(N)=O)NC(=O)[C@H](CO)NC(=O)[C@H](CO)NC(=O)[C@H](Cc1c[nH]cn1)NC(=O)[C@H](CCCNC(=N)N)NC(=O)[C@H](CC(C)C)NC(=O)[C@H](Cc1ccccc1)NC(=O)[C@H](CCC(=O)O)NC(=O)[C@H](C)NC(=O)[C@H](CC(C)C)NC(=O)[C@H](CCCNC(=N)N)NC(=O)[C@H](CCC(N)=O)NC(=O)[C@@H](NC(=O)[C@H](C)NC(=O)[C@@H]1CSSC[C@H](NC(=O)[C@@H](N)CCCCNC(=O)CC[C@H](NC(=O)CC[C@H](NC(=O)CCCCCCCCCCCCCCCCCCC(=O)O)C(=O)O)C(=O)O)C(=O)N[C@@H](CC(N)=O)C(=O)N[C@@H]([C@@H](C)O)C(=O)N[C@@H](C)C(=O)N[C@@H]([C@@H](C)O)C(=O)N1)[C@@H](C)O)C(=O)N[C@@H](CC(C)C)C(=O)N[C@@H](CO)C(=O)N[C@@H](CO)C(=O)N[C@H](C(=O)N[C@@H](CC(N)=O)C(=O)N[C@H](C(=O)NCC(=O)N1CCC[C@H]1C(=O)N[C@@H](CCC(=O)O)C(=O)N[C@H](C(=O)N[C@@H](Cc1ccc(O)cc1)C(N)=O)[C@@H](C)O)C(C)C)[C@@H](C)O [Example 126] (H-K([γGlu-γGlu-C20 diacid])CNTATCATQRLAEFLRHSSNNPGAILSSTNVGPETY-NH2; disulfide 2-7 (inferred); N-terminus assumed) |
